Assays:
EMT6 cells [1] = test: EMT6 in vitro culture viability, Cell Titer Glo Assay; type: cell-based, mouse; conditions: 5 days
Protocol: EMT6 cells were cultured in vitro for 5 days the presence of a multiple concentrations of the RARγ agonists GA1E, GA2E, and GA3Ep and viability assessed by the Cell Titer Glo Assay® (Promega).

JIMT-1 cells = test: NSG-B2M mice implanted with JIMT-1 Her2+ breast cancer cells and human PBMC; type: in vivo
Protocol: The NSG-B2M mouse model is a severely immunocompromised animal, combining the lesions non-obese diabetic (NOD), severe combined immunodeficiency (SCID), IL-2 receptor γ null, and β2-microglobulin null. Human tumor cells readily engraft in this model and cells from the human immune system can also be engrafted in order to study various modes of cancer immunotherapy. Thus, one can model a human immune response to a human tumor in this system. Female NSG-B2M mice were injected in the mammary fat pad with 5×10^6 JIMT-1 cells (human breast carcinoma cell line) suspended in 0.1 mL of phosphate-buffered saline (PBS) with an equal volume of Matrigel®. Once tumors reached a volume of 100-200 mm^3, the mice were implanted with 1×10^7 human PBMC by subcutaneous injection into the right flank (pre-randomization). PBMC were obtained from two donors and distributed evenly between groups. When tumors reached an average tumor volume of 200-250 mm^3 (about 3 days post-PBMC injection) animals were matched by tumor volume into treatment and control groups, and dosing initiated. This first day of dosing was defined as Day 0. The mice were administered a daily oral dose of 10 mL/kg of 10% dimethyl sulfoxide (DMSO) in PBS as vehicle control or 10 mg/kg of GA2E dissolved in 10% DMSO in PBS as the treatment.
Tumor volume was measured twice weekly and on the day a study endpoint was reached. The mice were also weighed twice weekly and on the day a study endpoint was reached.
Study endpoint was defined as when the mean tumor volume of the control group (uncensored) reaches 1500 mm^3. If this occurs before Day 28, treatment groups and individual mice were permitted to be dosed and measured up to Day 28.

EMT6 cells [2] = test: EMT6 syngeneic mouse model of triple negative breast cancer (Example 3); type: in vivo; conditions: 21 daily oral doses 10 mg/kg; at the end of the study
Protocol: The RARγ agonists tazarotenic acid and GA2E were evaluated in the EMT6 syngeneic mouse model of breast cancer. 5×10^5 EMT6 cells were injected into the mammary fat pad of immunocompetent female Balb/c mice. When the tumors reached an average volume of 50-150 mm^3, mice were matched by tumor size into control or treatment groups (n=10-11).
The mice were treated with 21 daily oral doses 10 mg/kg of 1 mg/ml tazarotenic acid or GA2E, or vehicle control, starting on Day 0. Tumor volume was measured, and the mice weighed, on days 0, 1, 3, 6, 8, 10, 13, 15, 17, 20, and 21.

PBMC = test: CMV recall antigen-stimulated PBMC: IFNγ production and CFSE proliferation; type: cell-based; conditions: four days, vs vehicle control
Protocol: Peripheral blood mononuclear cells (PBMC) from a cytomegalovirus (CMV)-positive donor were labeled with carboxyfluorescein succinimidyl ester (CFSE) and stimulated with CMV recall antigens at […]. The PBMC were then treated with one of three difference RARγ selective agonists or vehicle (DMSO) control and incubated at 37° C., 5% CO2 for four days. Culture supernatant was harvested and assayed for IFNγ production and the PBMC evaluated for proliferation by flow cytometry for CFSE dilution.
CFSE is a fluorescent reactive cell membrane permeable dye. After it is taken up, CFSE covalently modifies proteins and is retained in cells for long periods of time. The CFSE-modified proteins are generally evenly divided between daughter cells at each division so that fluorescent intensity of the cells falls by have at each division. Thus diminution of the dye's fluorescent signal can be used as a measure of proliferation.

LLC cells = test: LLC syngeneic model in C57BL/6 mice (Example 10); type: in vivo
Protocol: The LLC model is based on an epidermoid carcinoma of the lung that spontaneously arose in a C57BL/6 mouse some 70 years ago, Syngeneic models have been useful in predicting clinical benefit. C57BL/6 mice, 6-8 weeks old, were injected subcutaneously in the left flank with 0.1 mL containing 3×10^5 LLC cells. When tumors reached an average tumor volume of 50-150 mm^3, the mice were matched by tumor size and sorted into control and treatment groups, and dosing initiated (Day 0). Three groups of 10 mice each were established: vehicle control, 10 mg/kg GA2E, and 25 mg/kg GA2E. The mice received one oral dose per day for 13 days. Tumor volumes and weight were measured on days 0, 2, 4, 6, 9, 11, and 13. This study was ended on Day 13, as the average tumor volume was >1500 mm^3, and the tumors analyzed by flow cytometry. Two animals in the 10 mg/kg group and one animal in the 25 mg/kg group were terminated early due to ulceration of the tumor.

TIL in JIMT-1 tumors = test: Flow cytometry of JIMT-1 tumors from NSG-B2M mice, Day 26; type: in vivo, human
Description: The mice were sacrificed on Day 26 of the study and the tumors collected and analyzed by flow cytometry. Statistical analysis was by ordinary one-way ANOVA with Tukey's test for significance comparison between groups. Gates were set to identify single cells by forward light scatter, live cells as single cells based on side scatter and staining with the vital stain Fixable Viability Dye eFluor™ 780, white blood cells from live cells based on side scatter and staining with anti-CD45, lymphocytes from white blood cells based on side and forward light scatter, and total T lymphocytes (tot T) from lymphocytes based on side scatter and staining with anti-CD3. Total T lymphocytes were divided into CD4^+ (TH) and CD8^+ (TC) lymphocytes based on staining with and anti-CD4 and CD8 antibodies and subsets assessed. The following observations were made on a per-mg of tumor tissue basis.

[3] = 10 mg/kg oral daily for 13 days
[4] = 25 mg/kg oral daily for 13 days
[5] = per mg tumor, vs controls, P<0.0001
[6] = per mg tumor, vs controls, P<0.001
[7] = per mg tumor, vs controls, P<0.05
[8] = per mg tumor, vs controls, P<0.05, listed as GA2
[9] = per mg tumor, vs controls, P>0.05

Compound: CC1(C)CCC(C)(C)c2cc(C(/C=C/c3ccc(C(=O)O)cc3F)=N/O)ccc21 [GA2E, 3-fluoro-4-((1E,3E)-3-(hydroxyimino)-3-(5,5,8,8-tetramethyl-5,6,7,8-tetrahydronaphthalen-2-yl)prop-1-en-1-yl)benzoic acid]
- effect on viability as concentrations exceeded 10 μM (EMT6 cells [1]): rapidly became toxic
- effect on viability at concentrations below 1 μM (EMT6 cells [1]): no effect
- IC50 (EMT6 cells [1]; Mus musculus, 120 h): 19 µM
- tumor volume after drug holiday started on Day 13 (JIMT-1 cells; 10 mg/kg daily oral until Day 12, then drug holiday): tumor shrinkage subsequent to Day 19
- tumor growth while the mice were receiving drug (JIMT-1 cells; 10 mg/kg daily oral, Day 0 to Day 12): No impact on tumor growth
- weight loss (JIMT-1 cells; 10 mg/kg daily oral, by Day 12): > 10%
- tumor growth inhibition (EMT6 cells [2]): 63%
- IFNγ production (PBMC; 0.1 to 1000 nM): increased IFNγ production substantially
- Proliferation of CD8+ cells (CFSE dilution) (PBMC; increase small): increased
- tolerability (LLC cells; [3]): well tolerated
- tumor growth (LLC cells; [3]): inhibited tumor growth
- weight loss over the course of the study (LLC cells; [3]): minimal weight loss
- tolerability (LLC cells; [4]): less well tolerated
- tumor growth (LLC cells; [4]): inhibited tumor growth
- weight loss (LLC cells; 25 mg/kg oral daily, by about Day 10): exceeding 10%
- proportion of tumor cells expressing PD-L1, CD18β, CD58 (LFA-3), and Her2 (TIL in JIMT-1 tumors; JIMT-1 tumor cells, flow cytometry): did not significantly alter
- concentration of T central memory CD8+ cells (CCR7+ CD45AR−) in tumor (TIL in JIMT-1 tumors; per mg tumor, vs controls): no significant change
- concentration of T effector memory CD8+ cells (CCR7− CD45AR−) in tumor (TIL in JIMT-1 tumors; per mg tumor, vs controls): no significant change
- concentration of naïve CD8+ cells (CCR7+ CD45AR+) in tumor (TIL in JIMT-1 tumors; per mg tumor, vs controls): no significant change
- concentration of CD8+ TIL expressing PD-1 (TIL in JIMT-1 tumors; [5]): increased
- concentration of terminally differentiated CD8+ T effector cells (CCR7− CD45AR+) (TIL in JIMT-1 tumors; [5]): substantial increase
- concentration of CD8+ TIL expressing CD18β (TIL in JIMT-1 tumors; [6]): increased
- concentration of total CD8+ lymphocytes in tumor (TIL in JIMT-1 tumors; [6]): increased
- concentration of CD8+ TIL expressing CD54 (TIL in JIMT-1 tumors; per mg tumor, vs controls, P<0.01): increased
- concentration of CD4+ TIL expressing CD18β (TIL in JIMT-1 tumors; [7]): increased
- concentration of CD4+ TIL expressing CD54 (TIL in JIMT-1 tumors; [7]): decreased
- concentration of CD4+ TIL expressing PD-1 (TIL in JIMT-1 tumors; [7]): decreased
- concentration of T central memory CD4+ cells (CCR7+ CD45AR−) (TIL in JIMT-1 tumors; [7]): decreased
- concentration of T effector memory CD4+ cells (CCR7− CD45AR−) (TIL in JIMT-1 tumors; [7]): decreased
- concentration of naïve CD4+ cells (CCR7+ CD45AR+) (TIL in JIMT-1 tumors; [7]): decreased
- concentration of total CD4+ lymphocytes in tumor (TIL in JIMT-1 tumors; [7]): decreased
- concentration of CD4+ TIL expressing CD54 (TIL in JIMT-1 tumors; [8]): increased
- concentration of CD4+ TIL expressing PD-1 (TIL in JIMT-1 tumors; [8]): increased
- concentration of CD4+ TIL expressing FoxP3 (TIL in JIMT-1 tumors; [9]): increased
- concentration of terminally differentiated CD4+ T effector cells (CCR7− CD45AR+) (TIL in JIMT-1 tumors; [9]): decreased
